# Assay results as given in patent US20070155795A1, “MUSCARINIC AGONISTS” (ACADIA Pharmaceuticals Inc., priority 2000, published 2007).
# Target: T1, m4 muscarinic receptor subtype (Homo sapiens, UniProt P08173)
# T1 construct: expressed in transfected cells; host or cells: NIH-3T3 (ATCC CRL 1658)
# T1 sequence (P08173 1-479): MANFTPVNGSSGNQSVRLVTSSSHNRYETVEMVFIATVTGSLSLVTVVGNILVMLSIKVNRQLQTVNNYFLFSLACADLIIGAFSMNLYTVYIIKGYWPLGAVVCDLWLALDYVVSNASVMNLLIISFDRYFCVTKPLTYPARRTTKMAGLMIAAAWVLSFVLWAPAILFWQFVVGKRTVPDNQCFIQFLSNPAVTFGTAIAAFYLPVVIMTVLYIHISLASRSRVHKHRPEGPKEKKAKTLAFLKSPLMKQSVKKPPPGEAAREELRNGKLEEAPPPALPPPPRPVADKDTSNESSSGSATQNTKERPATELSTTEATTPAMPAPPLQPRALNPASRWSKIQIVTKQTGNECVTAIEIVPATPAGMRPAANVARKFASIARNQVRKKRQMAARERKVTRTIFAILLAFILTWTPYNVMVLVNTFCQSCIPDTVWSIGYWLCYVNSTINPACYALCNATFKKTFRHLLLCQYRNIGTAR
# Experiment: R-SAT assay, muscarinic receptor subtype m4
# Format: cell-based
# Conditions: transfected NIH-3T3 cells, 5 days
# Description: (§1) Transfected cells were grown in the presence of between 1 nM and 40 μM of the test compound for 5 days. On day 5, the cells were lysed using 0.5% Nonidet-P and β-galactosidase expression was quantified using the chromogenic substrate o-nitrophenyl-β-D-galactoside (ONGP).
# (§2) Data were normalized relative to the maximum response of the cells to the muscarinic agonist carbachol, and the following equation was fitted to the data: • response=minimum+(maximum−minimum)/(1+(EC50/[ligand])) • Where [ligand]=ligand concentration. • % Efficacy was defined as: • (maximum−minimum)/(maximum response of cells to carbachol). • pEC50=−log (EC50). • Where data gave a bell-shaped curve, “maximum” was defined as the highest observed response.
row,m4 pEC50,Molecule
1,6.3,"CCCCC1CCN(CCCn2c(C)cc3ccccc32)CC1 [Example 77, 1-[3-(4-Butyl-piperidin-1-yl)-propyl]-2-methyl-1H-indole]"
2,<5.5,"1-[3-(4-Butyl-piperidin-1-yl)-propyl]-5,6-dimethyl-1H-benzoimidazole [Example 81]"

# Same assay, conditions: transfected NIH-3T3 cells, 5 days, read-out: m4 pEC50 (converted)
row,EC50,Molecule
1,1 µM,"CCCCC=C1CCN(CCCn2ncc3ccccc32)CC1 [Example 43, 1-(3-(4-Pentylidene-piperidine)-1-yl-propyl)-1H-indazole]"

# Same assay, conditions: transfected NIH-3T3 cells, 5 days, relative to maximum response to carbachol
row,m4 % Eff,Molecule
1,96%,"CCCCC1CCN(CCCn2c(C)cc3ccccc32)CC1 [Example 77, 1-[3-(4-Butyl-piperidin-1-yl)-propyl]-2-methyl-1H-indole]"
2,30%,"CCCCC=C1CCN(CCCn2ncc3ccccc32)CC1 [Example 43, 1-(3-(4-Pentylidene-piperidine)-1-yl-propyl)-1H-indazole]"
3,77%,"1-[3-(4-Butyl-piperidin-1-yl)-propyl]-5,6-dimethyl-1H-benzoimidazole [Example 81]"

row,Molecule,m4 % Eff
1,2-[3-(4-Butylpiperidin-1-yl)-propyl]-1-methyl-1H-benzimidazole [Example 73],no response (No response: Efficacy <25% maximum response of carbachol. This level of activity is not considered significantly different to no response.)

# Target: T2, m5 muscarinic receptor subtype (Homo sapiens, UniProt P08912)
# T2 construct: expressed in transfected cells; host or cells: NIH-3T3 (ATCC CRL 1658)
# T2 sequence (P08912 1-532): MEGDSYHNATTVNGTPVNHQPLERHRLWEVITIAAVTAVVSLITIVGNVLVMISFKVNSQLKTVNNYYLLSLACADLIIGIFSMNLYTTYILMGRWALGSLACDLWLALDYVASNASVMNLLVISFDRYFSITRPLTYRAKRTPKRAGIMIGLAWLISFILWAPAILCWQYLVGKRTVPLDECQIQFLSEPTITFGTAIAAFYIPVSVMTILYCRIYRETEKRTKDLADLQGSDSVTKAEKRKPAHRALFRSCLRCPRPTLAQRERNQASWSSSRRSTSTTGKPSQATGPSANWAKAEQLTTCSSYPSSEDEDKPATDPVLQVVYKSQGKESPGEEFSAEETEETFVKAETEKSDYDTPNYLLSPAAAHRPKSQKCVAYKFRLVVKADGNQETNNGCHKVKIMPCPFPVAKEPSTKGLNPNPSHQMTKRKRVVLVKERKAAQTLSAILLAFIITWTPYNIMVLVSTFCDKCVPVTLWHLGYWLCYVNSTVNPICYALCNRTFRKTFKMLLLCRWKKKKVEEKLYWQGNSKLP
# Experiment: R-SAT assay, muscarinic receptor subtype m5
# Format: cell-based
# Conditions: transfected NIH-3T3 cells, 5 days, relative to maximum response to carbachol
# Description: Screening Of Test Compounds In An Assay Using Muscarinic Receptor Subtypes m1, m2, m3, m4 and m5. The m1, m2, m3, m4 and m5 muscarinic receptor subtypes were cloned substantially as described by Bonner et al., Science […] and Bonner et al., Neuron 1:403 (1988). R-SAT assays were carried out substantially as described in U.S. Pat. Nos. 5,707,798, 5,912,132, and 5,955,281, and by Braüner-Osborne & Brann, Eur. J. Pharmacol. 295:93 (1995). NIH-3T3 cells (available from the American Type Culture Collection as ATCC CRL 1658) were transfected with plasmid DNA encoding the m1, m2, m3, m4 or m5 receptors and plasmid DNA encoding β-galactosidase. Transfected cells were grown in the presence of between 1 nM and 40 μM of the test compound for 5 days. On day 5, the cells were lysed using 0.5% Nonidet-P and β-galactosidase expression was quantified using the chromogenic substrate o-nitrophenyl-β-D-galactoside (ONGP).
# as §2
row,Molecule,m5 % Eff
1,"CCCCC=C1CCN(CCCn2ncc3ccccc32)CC1 [Example 43, 1-(3-(4-Pentylidene-piperidine)-1-yl-propyl)-1H-indazole]",no response (No response: Efficacy <25% maximum response of carbachol. This level of activity is not considered significantly different to no response.)

# Target: T3, m1 muscarinic receptor subtype (Homo sapiens, UniProt P11229)
# T3 construct: expressed in transfected cells; host or cells: NIH-3T3 (ATCC CRL 1658)
# T3 sequence (P11229 1-460): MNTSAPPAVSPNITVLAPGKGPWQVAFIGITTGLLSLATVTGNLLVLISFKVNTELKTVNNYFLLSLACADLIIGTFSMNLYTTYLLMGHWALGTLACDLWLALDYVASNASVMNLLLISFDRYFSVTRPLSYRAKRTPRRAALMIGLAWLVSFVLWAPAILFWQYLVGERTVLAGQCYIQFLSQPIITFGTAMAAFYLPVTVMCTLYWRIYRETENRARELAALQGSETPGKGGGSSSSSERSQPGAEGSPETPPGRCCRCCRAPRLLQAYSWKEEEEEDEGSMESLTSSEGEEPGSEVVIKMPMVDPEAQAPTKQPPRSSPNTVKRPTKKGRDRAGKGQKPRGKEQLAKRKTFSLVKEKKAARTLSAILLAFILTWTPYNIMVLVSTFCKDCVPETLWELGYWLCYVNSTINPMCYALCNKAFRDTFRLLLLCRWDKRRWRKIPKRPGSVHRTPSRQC
# Experiment: R-SAT assay, muscarinic receptor subtype m1
# Format: cell-based
# Conditions: transfected NIH-3T3 cells, 5 days
# Description: as §1, §2
row,Molecule,m1 pEC50
1,"CCC=C1CCN(CCCn2ncc3ccccc32)CC1 [Example 44, 1-(3-(4-Propylidene-piperidine)-1-yl-propyl)-1H-indazole]",6.1
2,"CCCCC1CCN(CCCn2c(C)cc3ccccc32)CC1 [Example 77, 1-[3-(4-Butyl-piperidin-1-yl)-propyl]-2-methyl-1H-indole]",7.0
3,"CC(C)CCC1CCN(CCCn2ncc3ccccc32)CC1 [Example 42, 1-(3-(4-(3-Methyl-butyl)-piperidine)-1-yl-propyl)-1H-indazole]",7.1
4,2-[3-(4-Butylpiperidin-1-yl)-propyl]-1-methyl-1H-benzimidazole [Example 73],6.2
5,"1-[3-(4-Butyl-piperidin-1-yl)-propyl]-5,6-dimethyl-1H-benzoimidazole [Example 81]",6.4

# Same assay, conditions: transfected NIH-3T3 cells, 5 days, read-out: m1 pEC50 (converted)
row,EC50,Molecule
1,0.501 µM,"CCCCC=C1CCN(CCCn2ncc3ccccc32)CC1 [Example 43, 1-(3-(4-Pentylidene-piperidine)-1-yl-propyl)-1H-indazole]"

# Same assay, conditions: transfected NIH-3T3 cells, 5 days, relative to maximum response to carbachol
row,Molecule,m1 % Eff
1,"CCC=C1CCN(CCCn2ncc3ccccc32)CC1 [Example 44, 1-(3-(4-Propylidene-piperidine)-1-yl-propyl)-1H-indazole]",72%
2,"CCCCC1CCN(CCCn2c(C)cc3ccccc32)CC1 [Example 77, 1-[3-(4-Butyl-piperidin-1-yl)-propyl]-2-methyl-1H-indole]",71%
3,"CC(C)CCC1CCN(CCCn2ncc3ccccc32)CC1 [Example 42, 1-(3-(4-(3-Methyl-butyl)-piperidine)-1-yl-propyl)-1H-indazole]",51%
4,"CCCCC=C1CCN(CCCn2ncc3ccccc32)CC1 [Example 43, 1-(3-(4-Pentylidene-piperidine)-1-yl-propyl)-1H-indazole]",66%
5,2-[3-(4-Butylpiperidin-1-yl)-propyl]-1-methyl-1H-benzimidazole [Example 73],37%
6,"1-[3-(4-Butyl-piperidin-1-yl)-propyl]-5,6-dimethyl-1H-benzoimidazole [Example 81]",72%
